# What was measured:
# Assay in all cases: relative viability (nuclei count vs DMSO), 5 days (fraction); higher = more cells survive
# HCC-78 = system: HCC-78
# In short: (§1)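 A single step with final 0.05% Triton X-100, 1% formaldehyde and 1 ug/ml Hoechst fixed the cells and stained nuclei 5 days after treatment. Lung cancer cell lines in 1536-well plates had been treated by pin tool the day after seeding with one drug alone or a fixed anchor-drug dose plus five library-drug doses (not always all listed) in √10 steps, and nuclei were counted on 4× images. Relative viability is the ratio of nuclei in treated wells to nuclei in vehicle wells, taken as the median of duplicate plates.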
# NCI-H1623 = system: NCI-H1623
# In short: as §1
# NCI-H2009 = system: NCI-H2009
# In short: as §1
# NCI-H2342 = system: NCI-H2342
# In short: as §1
# NCI-H358 = system: NCI-H358
# In short: as §1
# NCI-H460 = system: NCI-H460
# In short: as §1
# NCI-H522 = system: NCI-H522
# In short: as §1
# NCI-H661 = system: NCI-H661
# In short: as §1
smiles,measurement,setting,value
CC(=O)O[C@@]12CO[C@@H]1C[C@H](O)[C@@]1(C)C(=O)[C@H](O)C3=C(C)[C@@H](OC(=O)[C@H](O)[C@@H](NC(=O)OC(C)(C)C)c4ccccc4)C[C@@](O)([C@@H](OC(=O)c4ccccc4)[C@H]21)C3(C)C [Docetaxel] + Cc1nc(Nc2ncc(C(=O)Nc3c(C)cccc3Cl)s2)cc(N2CCN(CCO)CC2)n1 [Dasatinib] (partner 0.075 µM),relative viability,HCC-78; first compound 0.0002 µM,0.352
same,relative viability,HCC-78; first compound 0.000632 µM,0.3
same,relative viability,HCC-78; first compound 0.002 µM,0.235
same,relative viability,HCC-78; first compound 0.006325 µM,0.248
same,relative viability,HCC-78; first compound 0.02 µM,0.3
same,relative viability,NCI-H1623; first compound 0.0002 µM,0.555
same,relative viability,NCI-H1623; first compound 0.000632 µM,0.529
same,relative viability,NCI-H1623; first compound 0.002 µM,0.472
same,relative viability,NCI-H1623; first compound 0.006325 µM,0.313
same,relative viability,NCI-H1623; first compound 0.02 µM,0.239
same,relative viability,NCI-H2009; first compound 0.0002 µM,0.261
same,relative viability,NCI-H2009; first compound 0.000632 µM,0.299
same,relative viability,NCI-H2009; first compound 0.002 µM,0.273
same,relative viability,NCI-H2009; first compound 0.006325 µM,0.204
same,relative viability,NCI-H2009; first compound 0.02 µM,0.121
same,relative viability,NCI-H2342; first compound 0.0002 µM,0.309
same,relative viability,NCI-H2342; first compound 0.000632 µM,0.326
same,relative viability,NCI-H2342; first compound 0.002 µM,0.308
same,relative viability,NCI-H2342; first compound 0.006325 µM,0.285
same,relative viability,NCI-H2342; first compound 0.02 µM,0.265
same,relative viability,NCI-H358; first compound 0.0002 µM,0.159
same,relative viability,NCI-H358; first compound 0.000632 µM,0.179
same,relative viability,NCI-H358; first compound 0.006325 µM,0.111
same,relative viability,NCI-H358; first compound 0.02 µM,0.0699
same,relative viability,NCI-H460; first compound 0.0002 µM,0.457
same,relative viability,NCI-H460; first compound 0.000632 µM,0.44
same,relative viability,NCI-H460; first compound 0.002 µM,0.089
same,relative viability,NCI-H460; first compound 0.006325 µM,0.0266
same,relative viability,NCI-H460; first compound 0.02 µM,0.0131
same,relative viability,NCI-H522; first compound 0.0002 µM,0.712
same,relative viability,NCI-H522; first compound 0.000632 µM,0.866
same,relative viability,NCI-H522; first compound 0.002 µM,0.649
same,relative viability,NCI-H522; first compound 0.006325 µM,0.672
same,relative viability,NCI-H522; first compound 0.02 µM,0.49
same,relative viability,NCI-H661; first compound 0.0002 µM,0.836
same,relative viability,NCI-H661; first compound 0.000632 µM,0.792
same,relative viability,NCI-H661; first compound 0.002 µM,0.528
same,relative viability,NCI-H661; first compound 0.006325 µM,0.395
same,relative viability,NCI-H661; first compound 0.02 µM,0.284
Cc1sc2c(c1C)C(c1ccc(Cl)cc1)=N[C@@H](CC(=O)OC(C)(C)C)c1nnc(C)n1-2 [JQ1] + Cc1nc(Nc2ncc(C(=O)Nc3c(C)cccc3Cl)s2)cc(N2CCN(CCO)CC2)n1 [Dasatinib] (partner 0.075 µM),relative viability,HCC-78; first compound 0.04 µM,0.364
same,relative viability,HCC-78; first compound 0.1265 µM,0.419
same,relative viability,HCC-78; first compound 0.4 µM,0.366
same,relative viability,HCC-78; first compound 1.265 µM,0.319
same,relative viability,HCC-78; first compound 4 µM,0.248
same,relative viability,NCI-H1623; first compound 0.04 µM,0.634
same,relative viability,NCI-H1623; first compound 0.1265 µM,0.483
same,relative viability,NCI-H1623; first compound 0.4 µM,0.466
same,relative viability,NCI-H1623; first compound 1.265 µM,0.357
same,relative viability,NCI-H1623; first compound 4 µM,0.32
same,relative viability,NCI-H2009; first compound 0.04 µM,0.258
same,relative viability,NCI-H2009; first compound 0.1265 µM,0.156
same,relative viability,NCI-H2009; first compound 0.4 µM,0.196
same,relative viability,NCI-H2009; first compound 1.265 µM,0.154
same,relative viability,NCI-H2009; first compound 4 µM,0.185
same,relative viability,NCI-H2342; first compound 0.04 µM,0.315
same,relative viability,NCI-H2342; first compound 0.1265 µM,0.304
same,relative viability,NCI-H2342; first compound 0.4 µM,0.328
same,relative viability,NCI-H2342; first compound 1.265 µM,0.286
same,relative viability,NCI-H2342; first compound 4 µM,0.299
same,relative viability,NCI-H358; first compound 0.04 µM,0.182
same,relative viability,NCI-H358; first compound 0.1265 µM,0.262
same,relative viability,NCI-H358; first compound 0.4 µM,0.279
same,relative viability,NCI-H358; first compound 1.265 µM,0.183
same,relative viability,NCI-H358; first compound 4 µM,0.209
same,relative viability,NCI-H460; first compound 0.04 µM,0.5
same,relative viability,NCI-H460; first compound 0.1265 µM,0.221
same,relative viability,NCI-H460; first compound 0.4 µM,0.201
same,relative viability,NCI-H460; first compound 1.265 µM,0.171
same,relative viability,NCI-H460; first compound 4 µM,0.075
same,relative viability,NCI-H522; first compound 0.04 µM,0.951
same,relative viability,NCI-H522; first compound 0.1265 µM,0.641
same,relative viability,NCI-H522; first compound 0.4 µM,0.584
same,relative viability,NCI-H522; first compound 1.265 µM,0.575
same,relative viability,NCI-H522; first compound 4 µM,0.537
same,relative viability,NCI-H661; first compound 0.04 µM,0.814
same,relative viability,NCI-H661; first compound 0.1265 µM,0.564
same,relative viability,NCI-H661; first compound 0.4 µM,0.558
same,relative viability,NCI-H661; first compound 1.265 µM,0.379
same,relative viability,NCI-H661; first compound 4 µM,0.556

# — the supplement of paper PMC10307832
